From article PMC10724569 (Heliyon, 2023) come the findings set out here.

This assay relates to VRBMP-1 binding to ACE2 on NOK cells. In kind it is cell-based, human.

Turning to diminazene aceturate [DIZE], the “Binding of VRBMP-1 to NOK cells after DIZE treatment” value was “significantly reduced binding of VRBMP-1 at all three concentrations in a dose-dependent manner”; the “Reduction of VRBMP-1 binding, decoy peptides and DIZE each alone” value is given as “significantly reduced the binding of VRBMP-1 with nearly the same potency”.
